Assay results: ChEMBL document CHEMBL1671741, “The development of ciprofloxacin resistance in Pseudomonas aeruginosa involves multiple response stages and multiple proteins” (2010)
In brackets after ≈: the same amount, converted by molar mass. Activity calls are given as the source filed them. The rule behind the calls is not given here.

What was measured:
Pseudomonas aeruginosa [1] = assay: Antibacterial activity against Pseudomonas aeruginosa PAO1 harboring gatA::ISphoA/haha mutation by Etest; assay type: functional
Pseudomonas aeruginosa [2] = assay: Antibacterial activity against Pseudomonas aeruginosa PAO1 harboring phoU::ISphoA/haha mutation by Etest; assay type: functional
Pseudomonas aeruginosa [3] = assay: Antibacterial activity against Pseudomonas aeruginosa PAO1 harboring gabD::ISphoA/haha mutation by Etest; assay type: functional
Pseudomonas aeruginosa [4] = assay: Antibacterial activity against Pseudomonas aeruginosa PAO1 harboring mmsA::ISphoA/haha mutation by Etest; assay type: functional
Pseudomonas aeruginosa [5] = assay: Antibacterial activity against Pseudomonas aeruginosa PAO1 harboring yaaA::ISphoA/haha mutation by Etest; assay type: functional
Pseudomonas aeruginosa [6] = assay: Antibacterial activity against Pseudomonas aeruginosa PAO1 harboring gabD::ISlacZ/haha mutation by Etest; assay type: functional
Pseudomonas aeruginosa [7] = assay: Antibacterial activity against wild type Pseudomonas aeruginosa PAO1 assessed as viable bacterial count by Etest; assay type: functional
Pseudomonas aeruginosa [8] = assay: Antibacterial activity against Pseudomonas aeruginosa PAO1 horboring mmsA mutant gene assessed as viable bacterial count at 8 times MIC after 48 hrs by Etest; assay type: functional, organism-based
Pseudomonas aeruginosa [9] = assay: Antibacterial activity against Pseudomonas aeruginosa PAO1 horboring yaaA mutant gene assessed as viable bacterial count at 4 times MIC after 24 hrs by Etest; assay type: functional, organism-based
Pseudomonas aeruginosa [10] = assay: Antibacterial activity against Pseudomonas aeruginosa PAO1 horboring yaaA mutant gene assessed as viable bacterial count at 8 times MIC after 48 hrs by Etest; assay type: functional, organism-based
Pseudomonas aeruginosa [11] = assay: Antibacterial activity against wild type Pseudomonas aeruginosa PAK assessed as viable bacterial count at 0.5 times MIC after 48 hrs by Etest; assay type: functional, organism-based
Pseudomonas aeruginosa [12] = assay: Antibacterial activity against Pseudomonas aeruginosa PAO1 horboring gabD mutant gene assessed as viable bacterial count at 4 times MIC after 24 hrs by Etest; assay type: functional, organism-based
Pseudomonas aeruginosa [13] = assay: Antibacterial activity against Pseudomonas aeruginosa PAO1 horboring gabD mutant gene assessed as viable bacterial count at 8 times MIC after 48 hrs by Etest; assay type: functional, organism-based
Pseudomonas aeruginosa [14] = assay: Antibacterial activity against Pseudomonas aeruginosa PAO1 horboring mmsA mutant gene assessed as viable bacterial count at 4 times MIC after 24 hrs by Etest; assay type: functional, organism-based

CC(C)(O/N=C(\C(=O)N[C@@H]1C(=O)N2C(C(=O)[O-])=C(C[n+]3ccccc3)CS[C@H]12)c1csc(N)n1)C(=O)O [CEFTAZIDIME] gave an MIC (Pseudomonas aeruginosa [1]) of 1 µg/mL (≈ 1.83 µM), an MIC (Pseudomonas aeruginosa [2]) of 1.5 µg/mL (≈ 2.74 µM) and an MIC (Pseudomonas aeruginosa [3]) of 1 µg/mL (≈ 1.83 µM). The MIC (Pseudomonas aeruginosa [4]) was 1 µg/mL (≈ 1.83 µM), the MIC (Pseudomonas aeruginosa [5]) was 0.75 µg/mL (≈ 1.37 µM) and the MIC (Pseudomonas aeruginosa [6]) was 1 µg/mL (≈ 1.83 µM). For the same molecule, the MIC (Pseudomonas aeruginosa [7]) was 1 µg/mL (≈ 1.83 µM).

For O=C(O)c1cn(C2CC2)c2cc(N3CCNCC3)c(F)cc2c1=O [CIPROFLOXACIN], the Activity (Pseudomonas aeruginosa [8]) was “Active”, the Activity (Pseudomonas aeruginosa [9]) was “Active” and the Activity (Pseudomonas aeruginosa [10]) was “Active”. The Activity (Pseudomonas aeruginosa [11]) was “inactive”, the MIC (Pseudomonas aeruginosa [1]) was 0.19 µg/mL (≈ 0.573 µM) and the Activity (Pseudomonas aeruginosa [12]) was “inactive”. For the same molecule, the Activity (Pseudomonas aeruginosa [13]) was “Active” and the Activity (Pseudomonas aeruginosa [14]) was “inactive”.

In the case of C[C@@H](O)[C@H]1C(=O)N2C(C(=O)O)=C(SCCNC=N)C[C@H]12 [IMIPENEM ANHYDROUS], the MIC (Pseudomonas aeruginosa [1]) was 4 µg/mL (≈ 13.4 µM), the MIC (Pseudomonas aeruginosa [2]) was 4 µg/mL (≈ 13.4 µM) and the MIC (Pseudomonas aeruginosa [3]) was 1.5 µg/mL (≈ 5.01 µM). For the same molecule, the MIC (Pseudomonas aeruginosa [4]) was 1 µg/mL (≈ 3.34 µM), the MIC (Pseudomonas aeruginosa [5]) was 2 µg/mL (≈ 6.68 µM) and the MIC (Pseudomonas aeruginosa [6]) was 1.5 µg/mL (≈ 5.01 µM). The MIC (Pseudomonas aeruginosa [7]) was 4 µg/mL (≈ 13.4 µM).

With C[C@H]1COc2c(N3CCN(C)CC3)c(F)cc3c(=O)c(C(=O)O)cn1c23.C[C@H]1COc2c(N3CCN(C)CC3)c(F)cc3c(=O)c(C(=O)O)cn1c23.O [LEVOFLOXACIN] the MIC (Pseudomonas aeruginosa [1]) was 0.5 µg/mL, the MIC (Pseudomonas aeruginosa [3]) was 0.25 µg/mL and the MIC (Pseudomonas aeruginosa [4]) was 0.25 µg/mL. For the same molecule, the MIC (Pseudomonas aeruginosa [5]) was 0.25 µg/mL and the MIC (Pseudomonas aeruginosa [6]) was 0.25 µg/mL.

Work on NC[C@H]1O[C@H](O[C@H]2[C@H](O)[C@@H](O[C@H]3O[C@H](CO)[C@@H](O)[C@H](N)[C@H]3O)[C@H](N)C[C@@H]2N)[C@H](N)C[C@@H]1O [TOBRAMYCIN] yielded an MIC (Pseudomonas aeruginosa [1]) of 2 µg/mL (≈ 4.28 µM), an MIC (Pseudomonas aeruginosa [2]) of 2 µg/mL (≈ 4.28 µM) and an MIC (Pseudomonas aeruginosa [3]) of 2 µg/mL (≈ 4.28 µM). For the same molecule, the MIC (Pseudomonas aeruginosa [4]) was 1.5 µg/mL (≈ 3.21 µM), the MIC (Pseudomonas aeruginosa [5]) was 2 µg/mL (≈ 4.28 µM) and the MIC (Pseudomonas aeruginosa [6]) was 2 µg/mL (≈ 4.28 µM). The MIC (Pseudomonas aeruginosa [7]) was 2 µg/mL (≈ 4.28 µM).

Molecule GENTAMICIN has an MIC (Pseudomonas aeruginosa [1]) of 3 µg/mL, an MIC (Pseudomonas aeruginosa [2]) of 3 µg/mL and an MIC (Pseudomonas aeruginosa [3]) of 3 µg/mL. For the same molecule, the MIC (Pseudomonas aeruginosa [4]) was 2 µg/mL, the MIC (Pseudomonas aeruginosa [5]) was 3 µg/mL and the MIC (Pseudomonas aeruginosa [6]) was 3 µg/mL. For the same molecule, the MIC (Pseudomonas aeruginosa [7]) was 2 µg/mL.
